The values below come from patent publication US8940313B2, “Tyrosine-based prodrugs of antiviral agents” (priority 2010, dated 2015).

Series [1] in a line: Enzymatic stability: hydrolysis in rat intestinal homogenate, pH 6.5, 37° C., LC-MS. The following applies: per diastereoisomer, st = stable; for half-life: rat, intestinal homogenate, pH 6.5, T1/2 Int. Hom.
The subject of a further series is KB cells. In words: cells. In kind it is cell-based. As to conditions: read-out: IC50 KB.
The next series deals with vaccinia virus. In words: microbe, parasite or virus in culture. In kind it is cell-based. As to conditions: read-out: IC50 Vaccinia.
The subject of another series is cowpox virus. Nature of the series: microbe, parasite or virus in culture. The series is classed as cell-based. As to conditions: read-out: IC50 Cow Pox.
For series [2], the system named is human cytomegalovirus (HCMV). In words: microbe, parasite or virus in culture. In kind it is cell-based.
Another series concerns HFF cells. In words: cells. In kind it is cell-based, human. The following applies: read-out: IC50 HFF.
The next series relates to herpes simplex 1 (HSV-1). In words: microbe, parasite or virus in culture. The series is classed as cell-based.
[3] abbreviates: Human alphaherpesvirus 1, read-out: IC50 HSV-1.
[4] abbreviates: Human betaherpesvirus 5, read-out: IC50 HCMV.

The structures appear in SMILES notation. “And” between values parts separate entries of the source, which are not always exact repeats. Equal entries are not always repeated. Where two headings read alike, the source gives them in different places.

`COC(=O)[C@@H](N)Cc1ccc(OP2(=O)CO[C@@H](Cn3cnc4c(N)ncnc43)CO2)cc1` (single isomer, unassigned) [1a (S,R)] came in with a half-life in series [1] of less than 28 min.

Take `COC(=O)[C@@H](N)Cc1ccc(OP2(=O)CO[C@@H](Cn3cnc4c(N)ncnc43)CO2)cc1` (single isomer, unassigned) [1a (S,S)]: the “T1/2 Int. Hom.” value in series [1] is less than 28 min.

In turn, `COC(=O)[C@H](Cc1ccc(OP2(=O)CO[C@@H](Cn3cnc4c(N)ncnc43)CO2)cc1)NC(=O)[C@@H](N)C(C)C` (single isomer, unassigned) [1f (S,R)] came in with a half-life in series [1] of less than 28 min.

`COC(=O)[C@@H](N)Cc1ccc(OP2(=O)CO[C@@H](Cn3ccc(N)nc3=O)CO2)cc1` (single isomer, unassigned) [2a (S,R)] showed a half-life in series [1] of less than 30 min.

With `COC(=O)[C@H](N)Cc1ccc(OP2(=O)CO[C@@H](Cn3ccc(N)nc3=O)CO2)cc1` (single isomer, unassigned) [2b (S,R)], in series [1], the “T1/2 Int. Hom.” value came to 210 min.

As to `CC(C)CNC(=O)[C@@H](N)Cc1ccc(OP2(=O)COC(Cn3cnc4c(N)ncnc43)CO2)cc1` (single isomer, unassigned) [(S,R)-1e], the IC50 is greater than 100 µM with KB cells, 1 µM with vaccinia virus, 2.5 µM with cowpox virus and 0.55 µM in series [2] (read-out: IC50 HCMV). Moreover, the “T1/2 Int. Hom.” value in series [1] (listed as 1e (S,R)) came out at 630 min.

As for `CC(C)CNC(=O)[C@@H](N)Cc1ccc(OP2(=O)COC(Cn3cnc4c(N)ncnc43)CO2)cc1` (single isomer, unassigned) [(S,S)-1e], the IC50 in the series on KB cells (Homo sapiens, KB, 48 h) is greater than 100 µM; with vaccinia virus (Orthopoxvirus vaccinia, HFF) it was 1.5 µM; with HFF cells (Homo sapiens, HFF), greater than 100 µM; in the series on herpes simplex 1 (HSV-1) (read-out: IC50 HSV-1), 35 µM; in the series with cowpox virus (Cowpox virus, HFF), 2 µM; in series [2] (read-out: IC50 HCMV), 1.3 µM. In addition, in series [1] (listed as 1e (S,S)), the “T1/2 Int. Hom.” value is listed as 114 min.

`CC(C)OC(=O)[C@@H](N)Cc1ccc(OP2(=O)CO[C@@H](Cn3ccc(N)nc3=O)CO2)cc1` (stereo partly drawn) [2c (S,R)]: the “T1/2 Int. Hom.” value in series [1] is less than 30 min.

As to `CC(C)OC(=O)[C@@H](N)Cc1ccc(OP2(=O)CO[C@@H](Cn3ccc(N)nc3=O)CO2)cc1` (stereo partly drawn) [2c (S,S)], the “T1/2 Int. Hom.” value in series [1] is reported as less than 30 min.

On to `CC(C)(C)NC(=O)[C@H](N)Cc1ccc(OP2(=O)CO[C@@H](Cn3ccc(N)nc3=O)CO2)cc1` (stereo partly drawn) [2d (S,R)], for which the “T1/2 Int. Hom.” value in series [1] came to 1732 min.

For `CC(C)(C)NC(=O)[C@H](N)Cc1ccc(OP2(=O)CO[C@@H](Cn3ccc(N)nc3=O)CO2)cc1` (stereo partly drawn) [2d (S,S)], the “T1/2 Int. Hom.” value in series [1] is 203 min.

With `Nc1nc2c(ncn2COCCO)c(=O)[nH]1` [ACV, Acyclovir, reference compound], the IC50 in the series on herpes simplex 1 (HSV-1) (setting [3]) was found to be 0.6 µM; in the series on herpes simplex 1 (HSV-1) (read-out: IC50 HSV-1), 0.7 µM.

Consider `COC(=O)[C@@H](N)Cc1ccc(OP2(=O)CO[C@@H](Cn3cnc4c(N)ncnc43)CO2)cc1` (stereo partly drawn) [Compound 1a, Methyl(2S)-2-amino-3-(4-{[(5S)-5-[(6-amino-9H-purin-9-yl)methyl]-2-oxo-1,4,2λ^5-dioxaphosphinan-2-yl]oxy}phenyl)propanoate], for which the IC50 with KB cells (Homo sapiens, KB, 48 h) is greater than 100 µM; in the series with vaccinia virus (Orthopoxvirus vaccinia, HFF), 3 µM; in the series on HFF cells (Homo sapiens, HFF), greater than 100 µM; with herpes simplex 1 (HSV-1) (setting [3]) it was 35 µM; in the series on cowpox virus (Cowpox virus, HFF), 3.5 µM; in series [2] (setting [4]), 0.45 µM.

`CC(C)CNC(=O)[C@@H](N)Cc1ccc(OP2(=O)COC(Cn3cnc4c(N)ncnc43)CO2)cc1` (stereo partly drawn) [Compound 1e, (2S)-2-Amino-3-[4-({5-[(6-amino-9H-purin-9-yl)methyl]-2-oxo-1,4,2λ^5-dioxaphosphinan-2-yl}oxy)phenyl]-N-(2-methylpropyl)propanamide]: the IC50 is greater than 100 µM in the series with KB cells (Homo sapiens, KB, 48 h); 4.5 µM with vaccinia virus (Orthopoxvirus vaccinia, HFF); greater than 100 µM with HFF cells (Homo sapiens, HFF); 50 µM with herpes simplex 1 (HSV-1) (setting [3]); 7 µM with cowpox virus (Cowpox virus, HFF); 0.3 µM in series [2] (setting [4]).

In the case of `COC(=O)[C@H](Cc1ccc(OP2(=O)CO[C@@H](Cn3cnc4c(N)ncnc43)CO2)cc1)NC(=O)[C@@H](N)C(C)C` (stereo partly drawn) [Compound 1f, Methyl(2S)-2-[(2S)-2-amino-3-methylbutanamido]-3-[4-({(5S)-5-[(6-amino-9H-purin-9-yl)methyl]-2-oxo-1,4,2λ^5-dioxaphosphinan-2-yl}oxy)phenyl]propanoate], the IC50 in the series with KB cells (Homo sapiens, KB, 48 h) was greater than 100 µM; with vaccinia virus (Orthopoxvirus vaccinia, HFF), 4 µM; in the series on HFF cells (Homo sapiens, HFF) it was 100 µM; in the series with herpes simplex 1 (HSV-1) (setting [3]) it was 35 µM; in the series on cowpox virus (Cowpox virus, HFF), 8 µM; in series [2] (setting [4]), 0.3 µM.

As to `Nc1ccn(C[C@@H](CO)OCP(=O)(O)O)c(=O)n1` [Compound 2, (S)-HPMPC, reference compound], the IC50 in the series on vaccinia virus (Orthopoxvirus vaccinia, HFF) was 20 µM; with vaccinia virus, 15 µM; in the series on HFF cells (Homo sapiens, HFF), 100 µM; in the series on cowpox virus (Cowpox virus, HFF), 30 µM; in the series on cowpox virus, 15 µM and 20 µM; in series [2] (setting [4]), 0.28 µM.

For `COC(=O)[C@@H](N)Cc1ccc(OP2(=O)CO[C@@H](Cn3ccc(N)nc3=O)CO2)cc1` (stereo partly drawn) [Compound 2a, Methyl-(2S)-2-amino-3-(4-{[(5S)-5-[(4-amino-2-oxo-2H-pyrimidin-1-yl)-methyl]-2-oxo-1,4,2λ^5-dioxaphosphinan-2-yl]oxy}phenyl)propanoate], the IC50 is greater than 100 µM with KB cells (Homo sapiens, KB, 48 h); 4 µM in the series with vaccinia virus (Orthopoxvirus vaccinia, HFF); greater than 100 µM in the series with HFF cells (Homo sapiens, HFF); 25 µM in the series with herpes simplex 1 (HSV-1) (setting [3]); 50 µM in the series with cowpox virus (Cowpox virus, HFF); 0.23 µM in series [2] (setting [4]).

Consider `COC(=O)[C@H](N)Cc1ccc(OP2(=O)CO[C@@H](Cn3ccc(N)nc3=O)CO2)cc1` (stereo partly drawn) [Compound 2b, Methyl(2R)-2-amino-3-(4-{[(5S)-5-[(4-amino-2-oxo-2H-pyrimidin-1-yl)-methyl]-2-oxo-1,4,2λ^5-dioxaphosphinan-2-yl]oxy}phenyl)propanoate], for which the IC50 with KB cells (Homo sapiens, KB, 48 h) is greater than 100 µM; in the series with vaccinia virus (Orthopoxvirus vaccinia, HFF) it was 25 µM; with HFF cells (Homo sapiens, HFF), greater than 100 µM; in the series on herpes simplex 1 (HSV-1) (setting [3]), 35 µM; in the series on cowpox virus (Cowpox virus, HFF), 35 µM; in series [2] (setting [4]) it was 0.2 µM.

Regarding `CC(C)OC(=O)[C@@H](N)Cc1ccc(OP2(=O)CO[C@@H](Cn3ccc(N)nc3=O)CO2)cc1` (stereo partly shown) [Compound 2c], the IC50 in the series with KB cells was greater than 100 µM; in the series with vaccinia virus, 30 µM; in the series on HFF cells, greater than 100 µM; in the series on herpes simplex 1 (HSV-1) (read-out: IC50 HSV-1), 20 µM; in the series with cowpox virus, 40 µM; in series [2] (read-out: IC50 HCMV) it was 0.12 µM.

As to `CCC(C)[C@H](N)C(=O)N[C@@H](Cc1ccc(OP2(=O)CO[C@@H](Cn3ccc(N)nc3=O)CO2)cc1)C(=O)OC` (stereo partly drawn) [Compound 2f, Methyl(2S)-3-[4-({(5S)-5-[(4-amino-2-oxo-1,2-dihydropyrimidin-1-yl)methyl]-2-oxo-1,4,2λ^5-dioxaphosphinan-2-yl}oxy)phenyl]-2-[(2S)-2-amino-3-ethylbutanamido]propanoate], the IC50 was greater than 100 µM with KB cells (Homo sapiens, KB, 48 h); 20 µM in the series on vaccinia virus (Orthopoxvirus vaccinia, HFF); greater than 100 µM in the series on HFF cells (Homo sapiens, HFF); 15 µM in the series on herpes simplex 1 (HSV-1) (setting [3]); 30 µM with cowpox virus (Cowpox virus, HFF); less than 0.1 µM in series [2] (setting [4]).

For `Nc1ncnc2c1ncn2C[C@H]1COP(=O)(O)CO1` [Compound 6, cHPMPA, reference compound], the IC50 with KB cells (Homo sapiens, KB, 48 h) is greater than 100 µM; in the series with vaccinia virus (Orthopoxvirus vaccinia, HFF), 1 µM; in the series on HFF cells (Homo sapiens, HFF), 100 µM; in the series with herpes simplex 1 (HSV-1) (setting [3]) it was 30 µM; with cowpox virus (Cowpox virus, HFF), 0.6 µM; in series [2] (setting [4]), 1.3 µM.

With `Nc1nc(O)c2ncn(COC(CO)CO)c2n1` [DHPG, ganciclovir, reference compound], the IC50 was greater than 100 µM in the series with HFF cells (Homo sapiens, HFF) and 2.4 µM in series [2] (setting [4]).

A word on the half-life: it is how long it takes for the measured level to halve. The IC50 is the concentration needed to halve the response being measured.
